According to ChEMBL document CHEMBL1134803, “Inhibition of fucosyltransferase V by a GDP-Azasugar” (Bioorg Med Chem Lett, 2001):

Columns and labels:
[1] = biological target: T1, 4-galactosyl-N-acetylglucosaminide 3-alpha-L-fucosyltransferase FUT5 (Homo sapiens, UniProt Q11128); experiment: Inhibitory activity against fucosyltransferase (FucT V) in the presence of fucosyl acceptor N-acetyllactosamine
T1 sequence (Q11128 whole entry): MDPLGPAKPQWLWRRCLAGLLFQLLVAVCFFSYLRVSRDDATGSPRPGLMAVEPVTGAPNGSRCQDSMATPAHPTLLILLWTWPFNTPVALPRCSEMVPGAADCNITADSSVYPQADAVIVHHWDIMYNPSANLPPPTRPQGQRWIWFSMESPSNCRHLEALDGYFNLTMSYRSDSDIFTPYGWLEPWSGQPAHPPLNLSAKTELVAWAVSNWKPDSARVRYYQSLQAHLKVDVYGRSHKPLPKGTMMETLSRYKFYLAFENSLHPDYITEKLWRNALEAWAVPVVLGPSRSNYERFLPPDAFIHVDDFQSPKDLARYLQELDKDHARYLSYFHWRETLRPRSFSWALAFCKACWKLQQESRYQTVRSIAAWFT

[2] = biological target: T1, 4-galactosyl-N-acetylglucosaminide 3-alpha-L-fucosyltransferase FUT5; experiment: Inhibitory activity against fucosyltransferase (FucT V) in the presence of 10 mM fucosyl acceptor N-acetyllactosamine
[3] = biological target: T1, 4-galactosyl-N-acetylglucosaminide 3-alpha-L-fucosyltransferase FUT5; experiment: Inhibitory activity against fucosyltransferase (FucT V) in the presence of 1 mM fucosyl acceptor N-acetyllactosamine

| IC50 [1] [µM] | IC50 [2] [µM] | IC50 [3] [µM] | Structure (SMILES) |
| --- | --- | --- | --- |
| > 1000 | – | – | NCCOP(=O)(O)OP(=O)(O)OC[C@H]1O[C@@H](n2cnc3c(O)nc(N)nc32)[C@H](O)[C@@H]1O |
| 67 | – | – | Nc1nc2c(ncn2[C@@H]2O[C@H](COP(=O)(O)OP(=O)(O)O)[C@@H](O)[C@H]2O)c(=O)[nH]1 |
| – | 82 | 45 | C[C@@H]1N[C@H](COP(=O)(O)OP(=O)(O)OC[C@H]2O[C@@H](n3cnc4c(O)nc(N)nc43)[C@H](O)[C@@H]2O)[C@@H](O)[C@@H]1O |
